Measured values reported in ChEMBL document CHEMBL1201862, “PubChem BioAssay data set” (2004).
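Dose response: 5 concentrations. Exposure: 48 h. Format: 96-well plates. Endpoint: linear interpolation; highest concentration if not reached. Abbreviation: GI50, concentration required for 50% inhibition of growth.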 Active and inactive are the calls of the source. Cut-off read from the data, not from the text of the source: active = GI50 up to about 1.1 µM and inactive = higher.

What was measured:
Assay in all cases: NCI-60 cell line screen, 48 h
786-0 = test system: 786-0
A498 = test system: A498
COLO 205 = test system: COLO 205
HCT-116 = test system: HCT-116
HCT-15 = test system: HCT-15
K562 = test system: K562
KM12 = test system: KM12
MOLT-4 = test system: MOLT-4
NCI-H226 = test system: NCI-H226
NCI-H23 = test system: NCI-H23
RPMI-8226 = test system: RPMI-8226
RXF 393 = test system: RXF 393
SF-268 = test system: SF-268
SF-539 = test system: SF-539
SK-MEL-28 = test system: SK-MEL-28
SK-OV-3 = test system: SK-OV-3
SN12C = test system: SN12C
SW-620 = test system: SW-620
HCC 2998 = test system: HCC 2998
HL-60 = test system: HL-60

Compound | GI50 (786-0) | GI50 (A498) | GI50 (COLO 205) | GI50 (HCT-116) | GI50 (HCT-15) | GI50 (K562) | GI50 (KM12) | GI50 (MOLT-4) | GI50 (NCI-H226) | GI50 (NCI-H23) | GI50 (RPMI-8226) | GI50 (RXF 393) | GI50 (SF-268) | GI50 (SF-539) | GI50 (SK-MEL-28) | GI50 (SK-OV-3) | GI50 (SN12C) | GI50 (SW-620) | GI50 (HCC 2998) | GI50 (HL-60)
N#Cc1c(Nc2ccc(F)cc2)[n+]([O-])c2ccc(Cl)cc2[n+]1[O-] | 3.34 µM (inactive) | 2.88 µM (inactive) | 1.95 µM (inactive) | 3.05 µM (inactive) | 2.5 µM | 2.47 µM (inactive) | 5.57 µM (inactive) | 2.52 µM (inactive) | 4.51 µM (inactive) | 3.84 µM (inactive) | 2.72 µM (inactive) | 4.36 µM (inactive) | 2.53 µM (inactive) | 2.56 µM (inactive) | 16.1 µM (inactive) | 4.06 µM (inactive) | 2.55 µM (inactive) | 3.78 µM (inactive) | – | –
CCOC(=O)c1ccc(C(=O)C(C(C)=O)C(=O)OC(C)(C)C)[nH]1 (stereo unspecified) | > 100 µM (inactive) | > 100 µM (inactive) | > 100 µM (inactive) | > 100 µM (inactive) | > 100 µM | > 100 µM (inactive) | > 100 µM (inactive) | > 100 µM (inactive) | > 100 µM (inactive) | > 100 µM (inactive) | > 100 µM (inactive) | > 100 µM (inactive) | > 100 µM (inactive) | – | > 100 µM (inactive) | > 100 µM (inactive) | > 100 µM (inactive) | > 100 µM (inactive) | > 100 µM (inactive) | > 100 µM (inactive)
CC(=O)c1nccc2c1c(C)nc1ccccc12 | – | 48 µM (inactive) | > 100 µM (inactive) | 64.3 µM (inactive) | 58.9 µM | 71.3 µM (inactive) | 38.7 µM (inactive) | 44.6 µM (inactive) | 10.4 µM (inactive) | 79.8 µM (inactive) | 16.4 µM (inactive) | 38.5 µM (inactive) | 64.3 µM (inactive) | > 100 µM (inactive) | > 100 µM (inactive) | > 100 µM (inactive) | 32.7 µM (inactive) | > 100 µM (inactive) | – | 67.8 µM (inactive)
O=C1c2sc(-c3ccc(F)cc3)cc2-n2cccc21 | 16.9 µM (inactive) | 23.3 µM (inactive) | 48 µM (inactive) | 18.4 µM (inactive) | 51.3 µM | 10.2 µM (inactive) | 26.4 µM (inactive) | 21.4 µM (inactive) | 24.4 µM (inactive) | – | 23.3 µM (inactive) | 23.5 µM (inactive) | 19.9 µM (inactive) | – | 69.8 µM (inactive) | 28.2 µM (inactive) | 19.4 µM (inactive) | 47.6 µM (inactive) | 29.2 µM (inactive) | –
CCOC(=O)c1nc2ccc(C(F)(F)F)cc2nc1NCc1ccc(Cl)c(Cl)c1 | 25.1 µM (inactive) | 30.2 µM (inactive) | 31.8 µM (inactive) | 27 µM (inactive) | 36.1 µM | 80 µM (inactive) | 28.7 µM (inactive) | > 100 µM (inactive) | 30.8 µM (inactive) | 40 µM (inactive) | > 100 µM (inactive) | 24.4 µM (inactive) | 39.9 µM (inactive) | 61.9 µM (inactive) | – | 35.2 µM (inactive) | – | 40 µM (inactive) | – | 41.5 µM (inactive)
O=C1c2ccccc2C(=O)c2cc(/N=N/c3c(O)ccc4ccccc34)ccc21 | > 100 µM (inactive) | > 100 µM (inactive) | > 100 µM (inactive) | > 100 µM (inactive) | > 100 µM | > 100 µM (inactive) | > 100 µM (inactive) | > 100 µM (inactive) | > 100 µM (inactive) | > 100 µM (inactive) | > 100 µM (inactive) | > 100 µM (inactive) | 30.1 µM (inactive) | – | > 100 µM (inactive) | > 100 µM (inactive) | > 100 µM (inactive) | > 100 µM (inactive) | – | –
CC1(C)C2CCC3(OCCO3)C1C1OC12 (stereo unspecified) | > 100 µM (inactive) | > 100 µM (inactive) | > 100 µM (inactive) | > 100 µM (inactive) | > 100 µM | > 100 µM (inactive) | > 100 µM (inactive) | > 100 µM (inactive) | > 100 µM (inactive) | > 100 µM (inactive) | > 100 µM (inactive) | > 100 µM (inactive) | > 100 µM (inactive) | > 100 µM (inactive) | > 100 µM (inactive) | > 100 µM (inactive) | – | > 100 µM (inactive) | – | > 100 µM (inactive)
O=c1[nH]c2cc(C(F)(F)F)ccc2nc1C(F)(F)F | 37 µM (inactive) | 41.3 µM (inactive) | 30.9 µM (inactive) | 27.5 µM (inactive) | 37.2 µM | 50.2 µM (inactive) | 23.7 µM (inactive) | 38.4 µM (inactive) | 28.6 µM (inactive) | 27.2 µM (inactive) | 31.5 µM (inactive) | 20.3 µM (inactive) | 40.4 µM (inactive) | 25.2 µM (inactive) | 68.9 µM (inactive) | 30.4 µM (inactive) | 29.7 µM (inactive) | 53.3 µM (inactive) | 49.7 µM (inactive) | –
Cc1ncc([N+](=O)[O-])n1CC[N+](C)([O-])CCCCn1ccnc1[N+](=O)[O-] (stereo unspecified) | > 100 µM (inactive) | > 100 µM (inactive) | > 100 µM (inactive) | > 100 µM (inactive) | > 100 µM | > 100 µM (inactive) | > 100 µM (inactive) | > 100 µM (inactive) | > 100 µM (inactive) | > 100 µM (inactive) | > 100 µM (inactive) | > 100 µM (inactive) | > 100 µM (inactive) | > 100 µM (inactive) | > 100 µM (inactive) | > 100 µM (inactive) | > 100 µM (inactive) | > 100 µM (inactive) | – | > 100 µM (inactive)
O=C(CC(=O)Nc1ccc(C(=O)O)cc1)Nc1ccc(C(=O)O)cc1 | > 100 µM (inactive) | > 100 µM (inactive) | > 100 µM (inactive) | > 100 µM (inactive) | > 10 µM | > 100 µM (inactive) | > 100 µM (inactive) | > 100 µM (inactive) | > 100 µM (inactive) | > 100 µM (inactive) | > 100 µM (inactive) | – | 34.6 µM (inactive) | > 100 µM (inactive) | > 100 µM (inactive) | > 100 µM (inactive) | > 100 µM (inactive) | > 100 µM (inactive) | > 100 µM (inactive) | > 100 µM (inactive)
Cc1ccc(NC(=O)/C(=N\Nc2ccc([N+](=O)[O-])cc2[N+](=O)[O-])C2C(=O)NC(=O)NC2=O)cc1 | > 100 µM (inactive) | > 100 µM (inactive) | > 100 µM (inactive) | 62.4 µM (inactive) | 6.31 µM | 26.2 µM (inactive) | 53.2 µM (inactive) | – | > 100 µM (inactive) | > 100 µM (inactive) | 70 µM (inactive) | 48.9 µM (inactive) | 32 µM (inactive) | 17.9 µM (inactive) | > 100 µM (inactive) | > 100 µM (inactive) | > 100 µM (inactive) | 45.7 µM (inactive) | – | 35.7 µM (inactive)
O=C1/C(=C/c2ccccc2)CN(C(=O)C(Cl)(Cl)Cl)C/C1=C\c1ccccc1 | 2.89 µM (inactive) | 4.24 µM (inactive) | 2.25 µM (inactive) | 0.356 µM (active) | 1.68 µM | 0.43 µM (active) | 1.29 µM (inactive) | 1.36 µM (inactive) | – | 2.37 µM (inactive) | 0.0348 µM (active) | 1.89 µM (inactive) | 3.33 µM (inactive) | 3.12 µM (inactive) | 1.73 µM (inactive) | – | 1.72 µM (inactive) | 0.546 µM (active) | – | 0.159 µM (active)
COC(=O)C1CCC(=O)N1C(c1ccc2c(c1)OCO2)c1cc(OC)c(OC)c(OC)c1 (stereo unspecified) | > 100 µM (inactive) | > 100 µM (inactive) | > 100 µM (inactive) | > 100 µM (inactive) | > 100 µM | > 100 µM (inactive) | > 100 µM (inactive) | > 100 µM (inactive) | > 100 µM (inactive) | > 100 µM (inactive) | > 100 µM (inactive) | – | > 100 µM (inactive) | > 100 µM (inactive) | > 100 µM (inactive) | > 100 µM (inactive) | > 100 µM (inactive) | > 100 µM (inactive) | > 100 µM (inactive) | > 100 µM (inactive)
COc1cccc(-c2[nH]c3cc4c(cc3c(=O)c2C(=O)O)OCO4)c1 | 44.8 µM (inactive) | 34.4 µM (inactive) | 26.5 µM (inactive) | 32.8 µM (inactive) | 28.4 µM | 34.5 µM (inactive) | 36.7 µM (inactive) | 24.2 µM (inactive) | 43.5 µM (inactive) | 31.9 µM (inactive) | 41.2 µM (inactive) | 39.2 µM (inactive) | – | 28.8 µM (inactive) | 37 µM (inactive) | – | 40.6 µM (inactive) | 29 µM (inactive) | 32.8 µM (inactive) | –
O=c1cc(NNc2ccccc2)[nH]c(=O)[nH]1 | 15.8 µM (inactive) | > 100 µM (inactive) | 17.9 µM (inactive) | 18.1 µM (inactive) | 16.5 µM | 24.1 µM (inactive) | 18.8 µM (inactive) | 27.2 µM (inactive) | 19 µM (inactive) | 56.8 µM (inactive) | 11.1 µM (inactive) | – | 25.7 µM (inactive) | 71.6 µM (inactive) | 11.2 µM (inactive) | > 100 µM (inactive) | 25.9 µM (inactive) | > 10 µM (inactive) | 19.9 µM (inactive) | 18.2 µM (inactive)
